The values that follow come from paper PMC9931709, “Uphill energy transfer mechanism for photosynthesis in an Antarctic alga” (Nature Communications, 2023).

The target in test [1] is T1, Pc-frLHC (Prasiola crispa far-red light-harvesting Chl-binding protein complex) (Prasiola crispa, UniProt C0HLU5).
T1 construct: native complex purified from thylakoids of thalli harvested in Antarctica; beta-DDM; homo-undecamer, subunit about 29 kDa
Description: cryo-EM structure, […] A; biochemical pigment analysis. The settings on record: native pigment, pH 6.5.

Test [2] addresses Prasiola crispa far-red light-harvesting Chl-binding protein complex (Pc-frLHC) subunit (Prasiola crispa). Nature of the test: cryo-EM structure; single-particle cryo-EM, C11 symmetry imposed; 6 mg protein/ml in 25 mM MES pH 6.5, 0.015% β-DDM, 0.5 M betaine; 3.13 Å.

Broadly, the stoichiometry N is a count of units in the complex or per binding partner.

T1 sequence (C0HLU5 45-307, one chain of several): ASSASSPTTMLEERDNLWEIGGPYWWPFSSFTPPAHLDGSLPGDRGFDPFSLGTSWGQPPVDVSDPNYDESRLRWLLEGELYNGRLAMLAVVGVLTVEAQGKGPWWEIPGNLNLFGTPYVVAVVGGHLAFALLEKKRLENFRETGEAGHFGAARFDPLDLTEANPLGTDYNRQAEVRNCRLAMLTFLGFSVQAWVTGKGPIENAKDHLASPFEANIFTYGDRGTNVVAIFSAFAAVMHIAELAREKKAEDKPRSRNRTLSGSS

For the compound `CC1=C[C@H](O)CC(C)(C)[C@H]1/C=C/C(C)=C/C=C/C(C)=C/C=C/C=C(C)/C=C/C=C(/C=C/C1=C(C)C[C@@H](O)CC1(C)C)CO` [loroxanthin], the “cryo-EM structure, 3.13 A; biochemical pigment analysis” value in test [1] (L2 site) was “Pc-frLHC binds only two carotenoids: violaxanthin (vio) and loroxanthin (loro)”.
As to `CC(/C=C/C=C(C)/C=C/[C@@]12O[C@]1(C)C[C@@H](O)CC2(C)C)=C\C=C\C=C(C)\C=C\C=C(C)\C=C\[C@@]12O[C@]1(C)C[C@@H](O)CC2(C)C` [violaxanthin], the “cryo-EM structure, 3.13 A; biochemical pigment analysis” value in test [1] (L1 site) was “Pc-frLHC binds only two carotenoids: violaxanthin (vio) and loroxanthin (loro)”.
“Prasiola crispa far-red light-harvesting Chl-binding protein complex (Pc-frLHC) subunit (natural protein)” came in with a stoichiometry N in test [2] of 11.
